The subject of assay [1] is Col4a3−/− mice on a 129S1/SvlmJ background. The assay can be described thus: Col4a3−/− mouse model of Alport syndrome, Study 1: two weeks of treatment. The settings on record: for immunofluorescence staining of collagen I and nidogen on kidney tissue / immunofluorescence staining of collagen I and αSMA on kidney tissue: 0.0022 mg/g i.p. daily for 2 weeks, same finding in saline-treated mice. The class given is in vivo. From the text:
(§1) The objective of this study was to evaluate the efficacy of the modified Cav-1 peptide APi2355 in ameliorating kidney fibrosis and disease using the Col4a3−/− mouse model of Alport syndrome. Alport syndrome mice (knockouts) have reduced Cav-1 expression in glomerulae tubules and develop glomerular fibrosis.
Col4a3−/− on the 129S1/SvlmJ develop end-stage renal disease at a faster rate compared to Col4a3−/− mice on the C57BL/6 background. Five week-old (Cohort 2) and 6 week-old (Cohort 1) Col4a3−/− mice on a 129S1/SvlmJ background were intraperitoneally injected daily with APi2355 (SEQ ID NO: 8, 0.0022 mg/g body weight) or with normal saline for 2 weeks. Urine was collected prior to treatment and on the day of sacrifice to monitor for glomerular permselectivity by measuring albumin to creatinine (A/C) ratios. Blood was collected on the day of sacrifice to monitor for glomerular filtration rate by blood urea nitrogen (BUN) assay and kidney tissue was collected following sacrifice to assess for renal injury and fibrosis. Mouse identification numbers were used to differentiate treatment groups.

Assay [2] has the same test system. As to the kind of experiment: Col4a3−/− mouse model of Alport syndrome, Study 2: four weeks of treatment. The format is in vivo. The settings on record: for Moderately Sclerotic Glom / Severely Sclerotic Glom / Moderately Sclerotic Glom (%) / Sclerotic Glom (%) / Severely Sclerotic Glom (%): 8 week-old, 4 weeks daily i.p. 0.0022 mg/g; for Moderately Sclerotic Glom / Severely Sclerotic Glom: count per individual mouse; for Moderately Sclerotic Glom (%) / Sclerotic Glom (%) / Severely Sclerotic Glom (%): per individual mouse. On the procedure: as §1
Four week-old Col4a3−/− mice on a 129S1/SvlmJ background were intraperitoneally injected daily with APi2355 (SEQ ID NO: 8, 0.0022 mg/g body weight) or with normal saline for 4 weeks. Urine was collected prior to treatment at 4 weeks-old and at 6, 7, and 8-weeks-old following treatment to monitor for glomerular permselectivity by measuring albumin to creatinine (A/C) ratios. Blood was collected prior to treatment at 4 weeks-old and at 6 and 8 weeks-old following treatment to monitor for glomerular filtration rate using the BUN assay and kidney tissue was collected following sacrifice to assess for renal injury and fibrosis. Mouse identification numbers were used to differentiate treatment groups.

Assay [3] concerns bleomycin-treated aged male mice. As to the kind of experiment: Bleomycin model of lung fibrosis in aged mice, Study 1 (Total Collagen Assay). The settings on record: bleomycin 4 U/kg intratracheal, mice 74 to 76 weeks-old, dry powder inhalation, compared to control peptide. The class given is in vivo, mouse. The text has this:
(§2) The objective of this study was to evaluate the modified Cav-1 peptide CSP-7 in a bleomycin model of idiopathic pulmonary fibrosis and acute respiratory distress syndrome (ARDS). Aged male mice were selected to closely match the population of humans most vulnerable to ARDS.
Aged male mice, which have a higher burden of senescent cells and therefore less regenerative potential, were used to test the efficacy of CSP-7 (SEQ ID NO: 3). Mice were between 74 to 76 weeks-old at the time of intratracheal bleomycin installation (4 U/kg body weight; n=5-8 mice/group). The Total Collagen Assay (QuickZyme Biosciences) was used to assess total collagen in lung tissue, which first hydrolyzes proteins in the lung homogenate then oxidizes hydroxyproline and stains.

A further assay relates to BLM-treated aged mice. As to the kind of experiment: Bleomycin model of lung fibrosis in aged mice, Study 2. The class given is in vivo. The settings on record: BLM 8 U/kg intratracheal, 73-74 week-old mice, 0.5 mg/mouse dry powder inhalation from day 14, sacrifice day 21, compared to control peptide. As to the method:
as §2
Bleomycin (BLM, 8 U/kg) was administered intratracheally to 73-74 week-old mice (n=52) expecting approximately 50% loss of mice due to BLM-induced lung injury. On day 14 post-instillation, CSP-7 and a control peptide (CP) was administered to mice via dry powder inhalation (DPI) or intraperitoneal injection (IP) as shown in Table B below. On day 21 post-instillation, mice were sacrificed and blood and tissues were collected for analysis. Statistics were performed using Dunnett's multiple comparison test.

Where [4] appears, read: Cohort 1 (treatment start 6 weeks-old).
Setting [5] is: Cohort 2 (treatment start 5 weeks-old).
[6] abbreviates: treatment starting at 4 weeks of age, 4 weeks, vs saline.

Where “and” joins values, the source holds several entries; their conditions need not be identical. Equal values may be shown once. Non-standard residues stand in square brackets, D forms with d.

“Ac-aaEGKASFTTFTVTKGSaa-NH2 (Ac-[dA][dA]EGKASFTTFTVTKGS[dA][dA]-NH2; SMILES CC(=O)N[C@H](C)C(=O)N[C@H](C)C(=O)N[C@@H](CCC(=O)O)C(=O)NCC(=O)N[C@@H](CCCCN)C(=O)N[C@@H](C)C(=O)N[C@@H](CO)C(=O)N[C@@H](Cc1ccccc1)C(=O)N[C@H](C(=O)N[C@H](C(=O)N[C@@H](Cc1ccccc1)C(=O)N[C@H](C(=O)N[C@H](C(=O)N[C@H](C(=O)N[C@@H](CCCCN)C(=O)NCC(=O)N[C@@H](CO)C(=O)N[C@H](C)C(=O)N[C@H](C)C(N)=O)[C@@H](C)O)C(C)C)[C@@H](C)O)[C@@H](C)O)[C@@H](C)O) [APi2355, modified Cav-1 peptide]”: in assay [1] (setting [4]), the “immunofluorescence staining of collagen I and nidogen on kidney tissue” value is on record as “additional staining in sclerotic glomeruli”; the “immunofluorescence staining of collagen I and αSMA on kidney tissue” value is listed as “additional staining in sclerotic glomeruli”. Besides, the “kidney sclerosis, overall” value in assay [1] (Cohort 1 and Cohort 2, 2 weeks of treatment, same in saline-treated mice) is “severe sclerosis in the interstitium and many sclerotic glomeruli”. For the same substance, in assay [1] (setting [5]), the “immunofluorescence staining of collagen I and nidogen on kidney tissue” value is listed as “additional staining in sclerotic glomeruli”; the “immunofluorescence staining of collagen I and αSMA on kidney tissue” value was “additional staining in sclerotic glomeruli”. In assay [2] (female Col4a3−/− mice), the “Moderately Sclerotic Glom” value was 0 and 1 (2×); the “Severely Sclerotic Glom” value came out at 4; the “Moderately Sclerotic Glom (%)” value is 0.0% and 2.0% and 2.1%; the “Sclerotic Glom (%)” value is 7.4% and 9.8% and 10.6%. The “Severely Sclerotic Glom (%)” value in assay [2] (female Col4a3−/− mice) is 7.4% and 7.8% and 8.5%. In addition, the “percentage of sclerotic glomeruli as assayed by collagen I deposition” value in assay [2] (females, treatment starting at 4 weeks of age, 4 weeks, vs saline) is recorded as “reduced the percentage of sclerotic glomeruli in females”. Moreover, in assay [2] (male Col4a3−/− mouse), the “Moderately Sclerotic Glom” value is listed as 6, the “Severely Sclerotic Glom” value is 21, the “Moderately Sclerotic Glom (%)” value stood at 15.0% and the “Sclerotic Glom (%)” value worked out at 67.5%. Further, the “Severely Sclerotic Glom (%)” value in assay [2] (male Col4a3−/− mouse) was 52.5%. Besides, the glomerular fibrosis result in assay [2] (mouse model of Alport syndrome, overall conclusion) is “reduced glomerular fibrosis”. For the same substance, in assay [2] (setting [6]), the “progression of BUN” value is listed as “did not slow the progression” and the progression of albuminuria entry was “did not slow the progression”.

Turning to “FTTFTVT (Modified Caveolin-1 peptide) [CSP-7, seven amino acid fragment of the human CSD of caveolin-1]”, the “total collagen in the lung” value (in assay [3]; with BLM-treated aged mice) was “reduction in total collagen” in each case.

The values are drawn from US20250262273A1, “MODIFIED CAVEOLIN-1 PEPTIDES FOR THE TREATMENT OF CHRONIC KIDNEY DISEASE” (Rein Therapeutics, Inc., priority 2021, published 2025).
